# In EPA's ToxValDB 9.5 (doi:10.2903/j.efsa.2009.195r):
# Experiments:
# Apis mellifera = settings: acute; duration: 48 hours; oral; unspecified; mortality
# Daphnia magna = settings: chronic/long-term; duration: 21 days; reproduction
# Anas platyrhynchos = settings: oral, mortality
compound,measurement,setting,value
COC(=O)c1cccc(C)c1S(=O)(=O)NC(=O)Nc1nc(OCC(F)(F)F)nc(N(C)C)n1 [Triflusulfuron-methyl],LD50,Apis mellifera,> 100 µg/piece
same,LC50,"Tagia sp.; acute, duration: 14 days, mortality",1000 mg/kg
same,NOEC,"Tagia sp.; chronic/long-term, duration: 56 days",250 mg/kg
same,NOEC,Daphnia magna,11 mg/L
same,LD50,"Anas platyrhynchos; acute, unspecified",> 2250 mg/kg-day
same,LC50,"Anas platyrhynchos; short-term, feed",> 1540 mg/kg-day
same,LD50,"Colinus virginianus; acute, oral, mortality",> 2250 mg/kg-day
same,NOEC,Colinus virginianus; reproduction developmental,27.6 mg/kg-day
same,LD50,"Rattus norvegicus; acute, oral, mortality",> 5000 mg/kg-day
same,NOAEL,"Rattus norvegicus; chronic, duration: 2 years, oral, diet, body weight",4.06 mg/kg-day
same,NOAEL,"Rattus norvegicus; developmental, development",120 mg/kg-day
same,NOAEL,"Rattus norvegicus; reproduction developmental, body weight",5.8 mg/kg-day
same,NOAEL,"Rattus norvegicus; subchronic, duration: 90 days, oral, body weight",6.6 mg/kg-day
same,LC50,"Oncorhynchus mykiss; acute, duration: 96 hours, mortality",730 µg/mL
same,NOEC,"Oncorhynchus mykiss; chronic/long-term, duration: 97 days, growth",57.7 mg/L
